Experimental data published in article PMC6407913, “DREADD Agonist 21 Is an Effective Agonist for Muscarinic-Based DREADDs in Vitro and in Vivo” (ACS Pharmacology & Translational Science, 2018).
Values joined by “and” are separate entries in the source; they are usually repeats but may differ in a detail not shown here. Equal entries are not always repeated. Where two headings read alike, the source gives them in different places.

Assays:
[1] = molecular target: T1, hM4 (Homo sapiens, UniProt P08173); experiment: whole-cell [3H]NMS competition binding; conditions: hM4, FlpIn CHO cells, mean (±SEM)
T1 construct: HA (hemagglutinin); expressed in transfected cells
T1 sequence (P08173 1-479): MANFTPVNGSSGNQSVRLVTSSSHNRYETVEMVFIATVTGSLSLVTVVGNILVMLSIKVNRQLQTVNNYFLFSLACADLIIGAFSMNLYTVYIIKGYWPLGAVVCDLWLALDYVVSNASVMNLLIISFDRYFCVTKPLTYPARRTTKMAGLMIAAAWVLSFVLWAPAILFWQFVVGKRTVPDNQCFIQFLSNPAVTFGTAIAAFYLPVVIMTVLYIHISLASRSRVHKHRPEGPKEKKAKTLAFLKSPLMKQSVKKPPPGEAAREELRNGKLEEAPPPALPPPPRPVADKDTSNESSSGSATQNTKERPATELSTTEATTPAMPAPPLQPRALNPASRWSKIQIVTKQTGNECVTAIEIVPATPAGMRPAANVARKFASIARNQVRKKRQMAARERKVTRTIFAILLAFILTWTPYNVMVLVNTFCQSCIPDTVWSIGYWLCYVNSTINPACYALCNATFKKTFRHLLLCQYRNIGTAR

[2] = molecular target: T1, hM4; experiment: inhibition of isoproterenol-stimulated cAMP production; type: cell-based; conditions: hM4, inhibition of isoproterenol elevated cAMP, mean (±SEM)
[3] = brain and plasma exposure after i.p. administration; type: in vivo, mice
[4] = molecular target: 5-HT2A (Homo sapiens, UniProt P28223); experiment: NIMH PDSP radioligand binding, membranes
5-HT2A, sequence (P28223 whole entry, species assumed): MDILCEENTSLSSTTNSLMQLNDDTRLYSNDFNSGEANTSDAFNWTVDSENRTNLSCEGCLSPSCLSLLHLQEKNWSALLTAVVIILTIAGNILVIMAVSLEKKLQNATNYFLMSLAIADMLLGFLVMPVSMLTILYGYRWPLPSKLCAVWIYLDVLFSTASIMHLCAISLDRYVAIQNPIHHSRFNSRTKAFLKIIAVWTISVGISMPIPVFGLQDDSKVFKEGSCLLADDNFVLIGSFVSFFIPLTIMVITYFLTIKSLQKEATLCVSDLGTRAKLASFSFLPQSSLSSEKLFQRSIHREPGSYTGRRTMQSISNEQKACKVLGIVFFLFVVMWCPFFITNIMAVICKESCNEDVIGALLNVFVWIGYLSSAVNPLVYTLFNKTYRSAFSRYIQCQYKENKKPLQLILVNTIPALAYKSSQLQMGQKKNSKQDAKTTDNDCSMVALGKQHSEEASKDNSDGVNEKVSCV
Description: (§1) Radioligand binding assays with membrane preparations to determine binding affinity were carried out as outlined before[540] and by the National Institute of Mental Health’s Psychoactive Drug Screening Program (NIMH PDSP) (https://pdsp.unc.edu/), Contract # HHSN-271–2013–00017-C. The NIMH PDSP is Directed by B.L.R. at the University of North Carolina at Chapel Hill, Chapel Hill, NC, and Project Officer Jamie Driscoll at NIMH, Bethesda, MD.

[5] = molecular target: 5-HT2B (Homo sapiens, UniProt P41595); experiment: NIMH PDSP radioligand binding, membranes
5-HT2B, sequence (P41595 whole entry, species assumed): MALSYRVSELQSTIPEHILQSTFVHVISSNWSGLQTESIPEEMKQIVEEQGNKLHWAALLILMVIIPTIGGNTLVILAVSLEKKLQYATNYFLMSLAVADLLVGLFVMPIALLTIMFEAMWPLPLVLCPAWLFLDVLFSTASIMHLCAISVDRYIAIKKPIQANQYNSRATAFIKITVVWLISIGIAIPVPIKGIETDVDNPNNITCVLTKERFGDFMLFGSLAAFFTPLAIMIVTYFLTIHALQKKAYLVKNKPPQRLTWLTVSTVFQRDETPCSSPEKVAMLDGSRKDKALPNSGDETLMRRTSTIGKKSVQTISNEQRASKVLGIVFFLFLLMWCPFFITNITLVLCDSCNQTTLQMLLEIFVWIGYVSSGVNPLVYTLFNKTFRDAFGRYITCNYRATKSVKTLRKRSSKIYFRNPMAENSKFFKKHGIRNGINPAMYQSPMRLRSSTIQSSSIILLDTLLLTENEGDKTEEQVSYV
Description: as §1

[6] = molecular target: T2, 5-HT2C (Homo sapiens, UniProt P28335); experiment: NIMH PDSP radioligand binding, membranes
T2 sequence (P28335 33-458): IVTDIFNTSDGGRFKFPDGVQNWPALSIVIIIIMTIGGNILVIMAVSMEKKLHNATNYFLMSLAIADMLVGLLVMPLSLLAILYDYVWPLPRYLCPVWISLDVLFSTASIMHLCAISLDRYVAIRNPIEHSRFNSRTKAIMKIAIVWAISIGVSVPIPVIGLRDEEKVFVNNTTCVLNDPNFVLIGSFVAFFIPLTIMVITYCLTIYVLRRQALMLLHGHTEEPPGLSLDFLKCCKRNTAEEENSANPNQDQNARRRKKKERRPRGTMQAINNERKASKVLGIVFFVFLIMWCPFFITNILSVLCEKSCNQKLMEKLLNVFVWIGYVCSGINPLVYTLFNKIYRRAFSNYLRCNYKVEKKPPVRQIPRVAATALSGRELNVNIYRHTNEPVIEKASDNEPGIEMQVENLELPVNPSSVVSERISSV
Description: as §1

[7] = molecular target: 5-HT3 (Homo sapiens, UniProt P46098); experiment: NIMH PDSP radioligand binding, membranes
5-HT3, sequence (P46098 24-478, species assumed): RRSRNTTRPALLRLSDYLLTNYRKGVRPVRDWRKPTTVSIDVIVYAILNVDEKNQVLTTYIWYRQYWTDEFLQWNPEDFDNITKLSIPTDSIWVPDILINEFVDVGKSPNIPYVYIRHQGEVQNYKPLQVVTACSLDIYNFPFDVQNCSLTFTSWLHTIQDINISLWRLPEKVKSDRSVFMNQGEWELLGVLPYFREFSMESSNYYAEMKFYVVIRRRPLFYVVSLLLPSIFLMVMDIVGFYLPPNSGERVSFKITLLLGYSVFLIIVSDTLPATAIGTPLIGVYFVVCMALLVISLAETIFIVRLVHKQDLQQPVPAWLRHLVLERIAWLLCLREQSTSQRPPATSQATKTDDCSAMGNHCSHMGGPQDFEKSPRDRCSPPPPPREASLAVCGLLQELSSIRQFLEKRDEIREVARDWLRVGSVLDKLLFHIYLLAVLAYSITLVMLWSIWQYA
Description: as §1

[8] = molecular target: T3, 5-HT5A (Homo sapiens, UniProt P47898); experiment: NIMH PDSP radioligand binding, membranes
T3 construct: NIMH PDSP
T3 sequence (P47898 whole entry, species assumed): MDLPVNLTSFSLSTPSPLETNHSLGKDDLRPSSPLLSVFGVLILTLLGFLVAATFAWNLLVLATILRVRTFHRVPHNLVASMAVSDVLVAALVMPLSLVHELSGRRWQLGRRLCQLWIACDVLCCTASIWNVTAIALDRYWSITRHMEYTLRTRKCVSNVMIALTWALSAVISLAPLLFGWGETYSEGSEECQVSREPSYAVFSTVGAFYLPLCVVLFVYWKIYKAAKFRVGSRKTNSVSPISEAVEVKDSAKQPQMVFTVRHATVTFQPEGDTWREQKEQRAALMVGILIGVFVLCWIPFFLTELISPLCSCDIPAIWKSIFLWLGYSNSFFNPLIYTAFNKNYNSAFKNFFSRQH
Description: as §1

[9] = molecular target: T4, 5-HT6 (Homo sapiens, UniProt P50406); experiment: NIMH PDSP radioligand binding, membranes
T4 construct: NIMH PDSP
T4 sequence (P50406 whole entry, species assumed): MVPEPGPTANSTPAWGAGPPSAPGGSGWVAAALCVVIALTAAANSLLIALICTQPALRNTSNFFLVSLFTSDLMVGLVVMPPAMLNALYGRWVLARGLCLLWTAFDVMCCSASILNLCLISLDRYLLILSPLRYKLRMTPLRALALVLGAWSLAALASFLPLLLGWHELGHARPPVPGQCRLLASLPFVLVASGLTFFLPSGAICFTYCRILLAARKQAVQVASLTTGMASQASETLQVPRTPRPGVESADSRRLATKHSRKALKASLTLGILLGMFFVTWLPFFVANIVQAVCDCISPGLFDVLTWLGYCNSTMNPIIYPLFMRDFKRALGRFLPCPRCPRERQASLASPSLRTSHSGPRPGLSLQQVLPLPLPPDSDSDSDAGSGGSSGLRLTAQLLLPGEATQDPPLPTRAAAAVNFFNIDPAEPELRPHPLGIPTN
Description: as §1

[10] = molecular target: T5, Alpha1A (Homo sapiens, UniProt P35348); experiment: NIMH PDSP radioligand binding, membranes
T5 construct: NIMH PDSP
T5 sequence (P35348 1-466): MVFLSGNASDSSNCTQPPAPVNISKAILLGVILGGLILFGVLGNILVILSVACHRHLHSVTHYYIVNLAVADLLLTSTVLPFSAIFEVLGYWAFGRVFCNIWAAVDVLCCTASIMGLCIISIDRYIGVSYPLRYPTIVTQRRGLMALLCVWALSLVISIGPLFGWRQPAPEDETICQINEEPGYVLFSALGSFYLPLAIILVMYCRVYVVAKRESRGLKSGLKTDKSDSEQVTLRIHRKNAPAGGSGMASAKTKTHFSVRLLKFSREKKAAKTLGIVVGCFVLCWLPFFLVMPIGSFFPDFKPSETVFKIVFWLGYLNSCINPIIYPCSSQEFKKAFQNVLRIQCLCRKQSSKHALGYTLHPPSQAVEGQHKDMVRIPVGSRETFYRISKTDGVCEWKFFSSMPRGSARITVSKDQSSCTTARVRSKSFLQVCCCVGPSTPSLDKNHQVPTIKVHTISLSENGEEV
Description: as §1

[11] = molecular target: T6, Alpha2C (Homo sapiens, UniProt P18825); experiment: NIMH PDSP radioligand binding, membranes
T6 construct: NIMH PDSP
T6 sequence (P18825 whole entry): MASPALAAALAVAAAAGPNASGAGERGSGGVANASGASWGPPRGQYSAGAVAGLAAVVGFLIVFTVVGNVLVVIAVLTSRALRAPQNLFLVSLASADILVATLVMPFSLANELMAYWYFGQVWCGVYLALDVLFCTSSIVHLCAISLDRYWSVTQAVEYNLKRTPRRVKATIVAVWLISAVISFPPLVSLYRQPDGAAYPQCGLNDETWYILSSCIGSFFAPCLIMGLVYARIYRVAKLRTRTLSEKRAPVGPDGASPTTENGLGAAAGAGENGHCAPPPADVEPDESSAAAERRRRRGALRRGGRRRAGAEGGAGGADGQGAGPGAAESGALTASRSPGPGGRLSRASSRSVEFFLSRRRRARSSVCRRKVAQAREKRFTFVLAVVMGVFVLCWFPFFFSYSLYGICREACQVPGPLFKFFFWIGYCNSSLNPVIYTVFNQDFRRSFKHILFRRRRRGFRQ
Description: as §1

[12] = molecular target: BZP; experiment: NIMH PDSP radioligand binding, membranes
Description: as §1

[13] = molecular target: T7, Beta3 (Homo sapiens, UniProt P13945); experiment: NIMH PDSP radioligand binding, membranes
T7 construct: NIMH PDSP
T7 sequence (P13945 whole entry): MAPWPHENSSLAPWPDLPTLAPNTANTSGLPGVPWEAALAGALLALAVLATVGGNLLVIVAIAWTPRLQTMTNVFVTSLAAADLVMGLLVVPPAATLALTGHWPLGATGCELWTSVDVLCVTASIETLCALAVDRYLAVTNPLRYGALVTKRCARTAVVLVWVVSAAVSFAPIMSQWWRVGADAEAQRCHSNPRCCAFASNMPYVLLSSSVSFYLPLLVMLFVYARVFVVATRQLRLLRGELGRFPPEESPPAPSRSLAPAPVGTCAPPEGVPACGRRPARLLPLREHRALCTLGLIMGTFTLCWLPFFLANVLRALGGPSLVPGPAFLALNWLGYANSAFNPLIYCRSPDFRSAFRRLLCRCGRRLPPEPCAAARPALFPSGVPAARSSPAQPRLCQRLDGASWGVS
Description: as §1

[14] = molecular target: D1 (Homo sapiens, UniProt P21728); experiment: NIMH PDSP radioligand binding, membranes
D1, sequence (P21728 whole entry): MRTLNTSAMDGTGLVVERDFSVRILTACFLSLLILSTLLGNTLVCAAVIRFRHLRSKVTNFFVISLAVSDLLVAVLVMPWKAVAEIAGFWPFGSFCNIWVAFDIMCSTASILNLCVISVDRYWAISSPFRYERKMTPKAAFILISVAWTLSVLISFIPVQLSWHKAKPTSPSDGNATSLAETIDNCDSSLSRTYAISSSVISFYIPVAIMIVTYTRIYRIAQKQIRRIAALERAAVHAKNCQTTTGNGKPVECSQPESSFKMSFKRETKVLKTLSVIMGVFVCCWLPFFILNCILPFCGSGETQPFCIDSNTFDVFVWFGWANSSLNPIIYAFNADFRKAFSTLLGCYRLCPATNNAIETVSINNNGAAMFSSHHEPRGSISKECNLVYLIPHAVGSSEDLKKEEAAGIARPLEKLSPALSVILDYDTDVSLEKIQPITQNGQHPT
Description: as §1

[15] = molecular target: H2 (Homo sapiens, UniProt P25021); experiment: NIMH PDSP radioligand binding, membranes
H2, sequence (P25021 whole entry): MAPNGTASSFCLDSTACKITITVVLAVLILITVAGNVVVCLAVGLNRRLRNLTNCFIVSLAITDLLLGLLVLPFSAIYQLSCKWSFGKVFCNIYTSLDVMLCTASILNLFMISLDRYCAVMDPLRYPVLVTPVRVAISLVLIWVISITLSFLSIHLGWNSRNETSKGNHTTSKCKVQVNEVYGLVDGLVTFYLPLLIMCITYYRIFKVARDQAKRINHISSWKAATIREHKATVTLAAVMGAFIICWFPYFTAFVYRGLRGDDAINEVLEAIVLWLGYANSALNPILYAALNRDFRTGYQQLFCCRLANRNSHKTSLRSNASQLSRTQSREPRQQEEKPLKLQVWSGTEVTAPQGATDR
Description: as §1

[16] = molecular target: H4 (Homo sapiens, UniProt Q9H3N8); experiment: NIMH PDSP radioligand binding, membranes
H4, sequence (Q9H3N8 whole entry): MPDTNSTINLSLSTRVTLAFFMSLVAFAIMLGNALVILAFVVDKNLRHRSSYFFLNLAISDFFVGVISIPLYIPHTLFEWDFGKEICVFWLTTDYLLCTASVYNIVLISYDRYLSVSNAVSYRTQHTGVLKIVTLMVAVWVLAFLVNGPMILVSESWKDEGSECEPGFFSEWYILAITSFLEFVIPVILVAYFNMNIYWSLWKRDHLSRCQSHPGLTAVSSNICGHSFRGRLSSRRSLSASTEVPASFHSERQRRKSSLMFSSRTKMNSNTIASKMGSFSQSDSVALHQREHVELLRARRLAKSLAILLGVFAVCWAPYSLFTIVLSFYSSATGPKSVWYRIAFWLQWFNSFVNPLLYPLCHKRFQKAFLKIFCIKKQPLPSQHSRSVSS
Description: as §1

[17] = molecular target: M1 (Homo sapiens, UniProt P11229); experiment: NIMH PDSP radioligand binding, membranes
M1, sequence (P11229 whole entry): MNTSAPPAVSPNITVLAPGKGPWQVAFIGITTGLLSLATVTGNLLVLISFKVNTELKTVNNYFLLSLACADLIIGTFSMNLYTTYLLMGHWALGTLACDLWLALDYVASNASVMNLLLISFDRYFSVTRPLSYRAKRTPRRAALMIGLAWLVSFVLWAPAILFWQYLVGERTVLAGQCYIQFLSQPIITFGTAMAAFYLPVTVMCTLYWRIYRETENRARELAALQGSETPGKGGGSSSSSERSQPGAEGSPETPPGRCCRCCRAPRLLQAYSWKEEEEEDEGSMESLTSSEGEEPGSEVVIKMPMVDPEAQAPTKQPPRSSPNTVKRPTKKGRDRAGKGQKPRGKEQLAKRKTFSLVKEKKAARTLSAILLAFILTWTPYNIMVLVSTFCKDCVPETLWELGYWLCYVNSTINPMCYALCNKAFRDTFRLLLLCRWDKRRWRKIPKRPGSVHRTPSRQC
Description: as §1

[18] = i.p. 0.1, 1 and 10 mg/kg, 30 min after administration
[19] = read-out: Ki #1-#5 (individual assays)
[20] = read-out: log Ki (individual assays) (converted)
[21] = read-out: pKi (mean) (converted)

In the case of `c1ccc2c(c1)N=C(N1CCNCC1)c1ccccc1N2` [C21, 11-(1-piperazinyl)-5H-dibenzo[b,e][1,4]diazepine], the Ki [1] is reported as 3630 nM, the EC50 [2] is reported as 1860 nM and the “effective free concentration at the peak, brain” value ([3]; 5 mg/kg i.p.) is reported as 28 nM. For the same compound, the “effective free concentration at the peak, plasma” value ([3]; 5 mg/kg i.p.) was roughly 54 nM, the brain level reached ([3]; 5 mg/kg i.p., time course) was 579 ng/mL and 2 μM and the peak plasma level ([3]; 5 mg/kg i.p., time course) was 1150 ng/mL and 4.12 μM. The “calculated free brain concentration” value ([3]; dose 0.3 mg/kg, mice) was roughly 1.7 nM, the calculated free concentration ([3]; dose 3 mg/kg, mice) was roughly 17 nM and the “brain and plasma levels” value [3, 18] was “measurable brain and plasma levels”. The metabolism to clozapine [3, 18] was “no evidence of metabolism to clozapine”, the Ki ([4]; read-out: Ki) was 44.3 nM and the Ki [4, 19] was 58.9 nM and 51 nM. The Ki [4, 20] was 28.8 nM, the Ki ([5]; read-out: Ki) was 32.7 nM and the Ki [5, 20] was 26.9 nM and 38 nM and 28.2 nM and 39.8 nM. For the same compound, the Ki [5, 21] was 33.1 nM, the Ki ([6]; read-out: Ki) was 47.9 nM and the Ki [6, 19] was 48.2 nM and 57 nM. The Ki [6, 20] was 39.8 nM, the Ki ([7]; read-out: Ki) was 360 nM and the Ki [7, 19] was 858 nM and 321 nM and 169 nM. The Ki ([8]; read-out: Ki) was 1910 nM, the Ki [8, 19] was 3300 nM and 1400 nM and 2020 nM and 1430 nM and the Ki ([9]; read-out: Ki) was 266 nM. For the same compound, the Ki [9, 19] was 421 nM and 193 nM and 232 nM, the “log Ki (individual assays)” value [10] was less than 5 and the Ki ([10]; read-out: Ki) was greater than 10000 nM. The Ki [10, 19] was greater than 10000 nM, the Ki ([11]; read-out: Ki) was 1690 nM and the Ki [11, 19] was 1860 nM and 936 nM and 2770 nM. The “log Ki (individual assays)” value [12] was 5.27 and 5.61 and 5.12 and 5.10 and 5.33, the “pKi (mean)” value [12] was 5.29 and the Ki ([12]; read-out: Ki) was 5180 nM. For the same compound, the Ki [12, 19] was 4720 nM and 5310 nM and 2440 nM and 7610 nM and 7980 nM, the Ki ([13]; read-out: Ki) was greater than 10000 nM and the Ki [13, 19] was greater than 10000 nM. The Ki ([14]; read-out: Ki) was 479 nM, the Ki [14, 19] was 525 nM and 316 nM and 661 nM and the Ki ([15]; read-out: Ki) was 289 nM. The Ki [15, 19] was 257 nM and 511 nM and 184 nM, the Ki ([16]; read-out: Ki) was greater than 10000 nM and the Ki [16, 19] was greater than 10000 nM. The Ki [16, 21] was greater than 10000 nM, the Ki ([17]; read-out: Ki) was 548 nM and the Ki [17, 19] was 693 nM and 303 nM and 785 nM.
